Earlier results in patent US7579333B2 (Teva Pharmaceutical Industries Ltd., priority 2004, dated 2009).

Legend:
new vertebral fractures = conditions: post-menopausal women with osteoporosis
[1] = test system: femoral bone mass density; conditions: 1 year; 60 mg/day raloxifene, 10 mg/day alendronate; 331 patients
[2] = in vivo

Structure (SMILES)	decrease in incidence of new vertebral fractures (new vertebral fractures)	improvement in femoral bone mass density [1]	pH at which best absorbed [2]
O=C(c1ccc(OCCN2CCCCC2)cc1)c1c(-c2ccc(O)cc2)sc2cc(O)ccc12 [raloxifene]	30-50%	1.7%	
NCCCC(O)(P(=O)(O)O)P(=O)(O)O [alendronate]			~6
